pKi: −log10 of the molar value. Where two headings read alike, the source gives them in different places.
What was measured:
[1] = Stability in liver microsomes (Example 21), CD-1 mouse; format: in vitro ADME; details: male, pH 7.4, CD-1 Mouse liver microsomes, 0.5 mg/mL protein
Method: (§1) General Procedure. Briefly, test compounds (final concentration 1 μM) were incubated in duplicate with liver microsomes from male animals of the indicated species (final protein concentration 0.5 mg/mL) in 50 mM sodium phosphate buffer (pH 7.4) with or without NADPH (1 mM). Total incubation volume was 500 μL. At 0, 5, 15, 30, and 60 min, aliquots of 50 μL were withdrawn, quenched with acetonitrile (150 μL), and analyzed for parent compound remaining using a fit-for-purpose LC-MS/MS method. Intrinsic clearance and half-life were calculated. Clearance values below zero were rounded to zero.

[2] = Stability in liver microsomes (Example 21), Gottingen minipig; format: in vitro ADME; details: male, pH 7.4, 0.5 mg/mL protein
Method: as §1

[3] = Stability in liver microsomes (Example 21), SD rat; format: in vitro ADME; details: male, pH 7.4, 0.5 mg/mL protein
Method: as §1

[4] = biological target: recombinant human NMDA receptor (GRIN1/GRIN2B) (Homo sapiens (Human), UniProt Q05586+Q13224); experiment: Unblocking kinetics at the NMDA receptor in Xenopus laevis oocytes (two-electrode voltage clamp); format: cell-based; details: compounds applied at 3×IC50, -70 mV, n ≥ 5
Method: Compounds 2R, 2S, and 2-(2-fluorophenyl)-2-(methylamino)cyclohexan-1-one 2-F-DCK were tested for unblocking kinetics at the NMDA receptor in Xenopus laevis oocytes expressing recombinant human NMDA receptor (GRIN1/GRIN2B) (Table 22).
Experimental Procedure. Oocytes were harvested from adult Xenopus laevis and incubated in 96 well plates for two to four days prior to recordings. Plasmids containing cDNA encoding for human NMDA receptor subunits GRIN1 and GRIN2B were transcribed using the mMessage mMachine T7 transcription kit (Ambion, USA). The Roboocyte automated injection system was used for injection of cRNA coding for hNMDA receptor subunits at a concentration of 100 ng/μL per subunit. Oocytes were clamped to a holding potential of −70 mV and induced currents after compound application were sampled at 200 Hz at room temperature. Agonist induced currents were recorded with a two-electrode voltage clamp. To determine the unblocking kinetics, glutamate and glycine (3 and 10 μM, respectively) were applied to the oocytes and the current recorded for 90 s. Then, compounds were applied at 3×IC50 for 120 s and the currents recorded.

[5] = Stability in liver microsomes (Example 21), beagle dog; format: in vitro ADME; details: male, pH 7.4, 0.5 mg/mL protein
Method: as §1

[6] = biological target: serotonin transporter (SERT) (Homo sapiens (Human), UniProt P31645); experiment: SERT competition radioligand binding ([3H]imipramine); details: Human recombinant (CHO cells), 2.0 nM [3H]imipramine
Method: Disclosed compounds were tested for their binding affinity at the serotonin transporter (SERT) using a competition radioligand binding assay (Eurofins Cerep). Assay conditions are described in Table 16 below.

[7] = Comparative oral pharmacokinetics of 2R, 2S and 2-F-DCK in mice; format: in vivo, C57BL/6 mice; details: 10 mg/kg po; for half-life: read-out: t1/2 (po)
Method: Animals. Male C57BL/6 mice were used in these studies. Aminals were randomly assigned to treatment groups and were fasted for 4 h before dosing.
Drugs. Test compounds were dissolved in a vehicle consisting of normal saline, They were then administered orally (po) at a dose of 10 mg/kg (calculated based on freebase) and at a volume of 10 mL/kg body weight.
Sample Collection and Bioanalysis. Blood samples (approximately 60 μL) were collected under light isoflurane anesthesia (Surgivet®) from the retro orbital plexus at 0.08, 0.25, 0.5, 1, 2, 4, 8, and 24 h (4 animals per time point). Immediately after blood collection, plasma was harvested by centrifugation at 4,000 rpm for 10 min at 4° C. and samples were stored at −70±10° C. until bioanalysis. Following blood collection, animals were immediately sacrificed, the abdominal vena-cava was cut open, and the whole body was perfused from the heart using 10 mL of normal saline, and brain samples were collected from all animals. After isolation, brain samples were rinsed three times in ice-cold normal saline (for 5-10 seconds/rinse using ˜5-10 mL normal saline in disposable petri dish for each rinse) and dried on blotting paper. Brain samples were homogenized using ice-cold phosphate-buffered saline (pH 7.4). Total homogenate volume was three times the tissue weight. All homogenates were stored at −70±10° C. until bioanalysis. For bioanalysis, 25 μL aliquots of plasma/brain study samples or spiked plasma/brain calibration standards were added to individual pre-labeled micro-centrifuge tubes followed by 100 μL of an internal standard solution (glipizide, 500 ng/mL in acetonitrile) except for blanks, where 100 μL of acetonitrile was added. Samples were vortexed for 5 minutes and then centrifuged for 10 minutes at 4,000 rpm at 4° C. Following centrifugation, 100 μL of each clear supernatant was transferred to a 96 well plate and analyzed with a fit-for-purpose LC-MS/MS method, with authentic samples of each analyte used for calibration and identification.
Data Analysis. Pharmacokinetic parameters were estimated using the non-compartmental analysis tool of Phoenix® WinNonlin software (Ver 8.0).

[8] = Stability in liver microsomes (Example 21), cynomolgus monkey; format: in vitro ADME; details: male, pH 7.4, 0.5 mg/mL protein
Method: as §1

Chain of recombinant human NMDA receptor (GRIN1/GRIN2B) (Q13224 whole entry, looked up, other chains not shown): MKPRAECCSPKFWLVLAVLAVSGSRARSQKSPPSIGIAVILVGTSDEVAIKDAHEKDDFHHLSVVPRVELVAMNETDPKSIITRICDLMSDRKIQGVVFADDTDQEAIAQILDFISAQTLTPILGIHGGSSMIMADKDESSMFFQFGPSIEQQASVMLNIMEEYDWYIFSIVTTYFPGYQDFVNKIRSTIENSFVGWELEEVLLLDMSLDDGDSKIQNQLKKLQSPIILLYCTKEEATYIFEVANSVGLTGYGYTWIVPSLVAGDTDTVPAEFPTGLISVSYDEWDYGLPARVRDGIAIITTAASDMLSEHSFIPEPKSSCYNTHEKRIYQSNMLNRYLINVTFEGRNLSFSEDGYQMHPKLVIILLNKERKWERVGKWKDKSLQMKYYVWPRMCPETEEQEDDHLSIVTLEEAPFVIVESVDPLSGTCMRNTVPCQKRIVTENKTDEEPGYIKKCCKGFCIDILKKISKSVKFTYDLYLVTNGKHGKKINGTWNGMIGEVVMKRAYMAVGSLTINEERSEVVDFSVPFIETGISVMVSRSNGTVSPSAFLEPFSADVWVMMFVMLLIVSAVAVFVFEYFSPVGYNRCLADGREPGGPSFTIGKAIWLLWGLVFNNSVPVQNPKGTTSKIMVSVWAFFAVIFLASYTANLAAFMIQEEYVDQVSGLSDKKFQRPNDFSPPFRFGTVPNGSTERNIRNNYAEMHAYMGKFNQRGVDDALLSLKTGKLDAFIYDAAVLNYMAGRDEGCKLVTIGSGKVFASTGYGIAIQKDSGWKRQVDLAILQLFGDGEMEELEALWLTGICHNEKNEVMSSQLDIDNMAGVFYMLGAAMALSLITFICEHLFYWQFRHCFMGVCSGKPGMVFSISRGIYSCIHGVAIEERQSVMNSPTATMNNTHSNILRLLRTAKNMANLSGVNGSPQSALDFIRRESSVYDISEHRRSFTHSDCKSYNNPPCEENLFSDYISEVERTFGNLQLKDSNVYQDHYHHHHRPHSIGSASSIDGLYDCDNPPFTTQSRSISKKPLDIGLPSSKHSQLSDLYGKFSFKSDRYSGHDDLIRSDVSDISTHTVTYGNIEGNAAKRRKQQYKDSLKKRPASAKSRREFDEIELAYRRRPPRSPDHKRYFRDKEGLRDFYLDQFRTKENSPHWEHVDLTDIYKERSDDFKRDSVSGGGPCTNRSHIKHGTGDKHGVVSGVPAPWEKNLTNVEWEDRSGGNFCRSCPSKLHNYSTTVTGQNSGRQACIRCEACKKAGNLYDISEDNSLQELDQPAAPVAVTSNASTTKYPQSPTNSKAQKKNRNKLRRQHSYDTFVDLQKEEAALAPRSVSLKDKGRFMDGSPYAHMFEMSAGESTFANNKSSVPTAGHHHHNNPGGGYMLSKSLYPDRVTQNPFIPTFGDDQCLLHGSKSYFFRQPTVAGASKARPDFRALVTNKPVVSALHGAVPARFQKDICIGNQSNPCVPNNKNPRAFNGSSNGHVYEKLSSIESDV

CNC1(c2ccccc2F)CCCCC1=O (stereo not shown) [Compound 2-F-DCK, 2-(2-fluorophenyl)-2-(methylamino)cyclohexan-1-one, reference compound]
microsomal CLint at 1 μM [1]: 10.9 µL/min/mg
microsomal CLint at 1 μM [2]: 56.2 µL/min/mg
microsomal CLint at 1 μM [3]: 111 µL/min/mg
Unblocking T1/2 ± SEM [4]: 1.44 ± 0.21 min
microsomal CLint at 1 μM [5]: 30 µL/min/mg
pKi [6]: 4.40
Cmax ([7]; male, C57BL/6, mouse brain): 1670 ng/g
half-life ([7]; male, C57BL/6, mouse brain): 41 min
Cmax ([7]; male, C57BL/6, mouse plasma): 1960 ng/mL
AUC(0-t) ([7]; male, C57BL/6, mouse plasma, read-out: AUC0-last (po) (converted)): 1150 ng·h/mL
half-life ([7]; male, C57BL/6, mouse plasma): 69 min
AUC0-last (po) ([7]; mouse brain): 59119 ng·min/g
microsomal CLint at 1 μM [8]: 212 µL/min/mg

Source: US20240300886A1, “ARYLCYCLOHEXYLAMINE DERIVATIVES AND THEIR USE IN THE TREATMENT OF PSYCHIATRIC DISORDERS” (GILGAMESH PHARMACEUTICALS, INC., priority 2021, published 2024)
